Experimental data reported in the supplement of paper PMC6045584.
± gives the standard deviation of the averaged measurements.

What was measured:
CAMPTOTHECIN = compound: CC[C@@]1(O)C(=O)OCc2c1cc1n(c2=O)Cc2cc3ccccc3nc2-1 [CAMPTOTHECIN]; experiment: area under dose-response curve of surviving fraction (unscaled, Aref=0) (surviving fraction x log10(nM)); higher = more resistant; conditions: exposure time: 5 days; dose range 0.5-1000 nM
Outline: (§1)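 Each tumour cell line was screened three times in 384-well plates, receiving eight inhibitor concentrations from 0.5 to 1000 nM for five days. CellTiter-Glo luminescence gave viability, normalised to DMSO-only wells. Using the drc R package, surviving fractions were fitted with 3-parameter logistic dose-response curves, and the unscaled activity area over log10 dose (Aref = 0) was taken as the area under the curve.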

CARBOPLATIN = compound: O=C(O)C1(C(=O)O)CCC1.[NH2-].[NH2-].[Pt+2] [CARBOPLATIN]; experiment: as above; conditions: exposure time: 5 days; dose range 0.5-1000 nM
Outline: as §1

OSI-906 = compound: C[C@]1(O)C[C@@H](c2nc(-c3ccc4ccc(-c5ccccc5)nc4c3)c3c(N)nccn32)C1 [OSI-906]; experiment: as above; conditions: exposure time: 5 days; dose range 0.5-1000 nM
Outline: as §1

[1] = compound: CC(=O)c1c(C)c2cnc(Nc3ccc(N4CCNCC4)cn3)nc2n(C2CCCC2)c1=O; experiment: as above; conditions: exposure time: 5 days; dose range 0.5-1000 nM
Outline: as §1

GEFITINIB = compound: COc1cc2ncnc(Nc3ccc(F)c(Cl)c3)c2cc1OCCCN1CCOCC1 [GEFITINIB]; experiment: as above; conditions: exposure time: 5 days; dose range 0.5-1000 nM
Outline: as §1

CELECOXIB [2] = compound: T1, Cc1ccc(-c2cc(C(F)(F)F)nn2-c2ccc(S(N)(=O)=O)cc2)cc1 [CELECOXIB]; experiment: as above; conditions: exposure time: 5 days; dose range 0.5-1000 nM
Outline: as §1

PACLITAXEL = compound: CC(=O)O[C@H]1C(=O)[C@@]2(C)[C@H]([C@H](OC(=O)c3ccccc3)[C@]3(O)C[C@H](OC(=O)[C@H](O)[C@@H](NC(=O)c4ccccc4)c4ccccc4)C(C)=C1C3(C)C)[C@]1(OC(C)=O)CO[C@@H]1C[C@@H]2O [PACLITAXEL]; experiment: as above; conditions: exposure time: 5 days; dose range 0.5-1000 nM
Outline: as §1

YM155 = compound: COCC[n+]1c2c(n(Cc3cnccn3)c1C)C(=O)c1ccccc1C2=O [YM155]; experiment: as above; conditions: exposure time: 5 days; dose range 0.5-1000 nM
Outline: as §1

[3] = compound: CC(=O)NCC(=O)N1[C@@H]2CC[C@H]1c1ccc(Nc3ncc(C(F)(F)F)c(NC4CCC4)n3)cc12; experiment: as above; conditions: exposure time: 5 days; dose range 0.5-1000 nM
Outline: as §1

CELECOXIB [4] = compound: T1, CELECOXIB; experiment: surviving fraction relative to DMSO-only wells; higher = less growth inhibition; conditions: exposure time: 5 days
Outline: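 Viability was determined by CellTiter-Glo luminescence, expressed as surviving fraction normalised to the median of DMSO-only wells. The cells were log-phase tumour cell lines seeded at 250–500 per well in 384-well plates and, after 24 hours, exposed continuously for five days to inhibitors at 0.5, 1, 5, 10, 50, 100, 500 and 1000 nM. Three screens per line were run, keeping only lines with replicate Pearson r >0.7 and median Z' >0.3.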

Test System	area under dose-response curve (CAMPTOTHECIN)	area under dose-response curve (CARBOPLATIN)	area under dose-response curve (OSI-906)	area under dose-response curve [1]	area under dose-response curve (GEFITINIB)	area under dose-response curve (CELECOXIB [2])	area under dose-response curve (PACLITAXEL)	area under dose-response curve (YM155)	area under dose-response curve [3]	surviving fraction (CELECOXIB [4]; 0.5 nM)	surviving fraction (CELECOXIB [4]; 1 nM)	surviving fraction (CELECOXIB [4]; 5 nM)	surviving fraction (CELECOXIB [4]; 10 nM)	surviving fraction (CELECOXIB [4]; 50 nM)	surviving fraction (CELECOXIB [4]; 100 nM)	surviving fraction (CELECOXIB [4]; 500 nM)	surviving fraction (CELECOXIB [4]; 1000 nM)
PCI30 HEADNECK	1.92	3.57	3.26	3.11	2.84	3.38	0.529	1.32	2.81	1.02 ± 0.095	1 ± 0.057	1.07 ± 0.044	1.07 ± 0.046	1.03 ± 0.12	1.01 ± 0.013	0.975 ± 0.051	0.928 ± 0.038
LNCAP PROSTATE	0.813	3.35	3.5	3.12	3.19	3.19	0.354	1.82	2.3	1.02 ± 0.042	0.956 ± 0.067	0.986 ± 0.057	1.01 ± 0.081	0.919 ± 0.012	0.998 ± 0.083	0.885 ± 0.057	0.94 ± 0.065
HCC1806 BREAST	0.682	3.64	2.83	3.44	2.94	3.65	0.267	1.02	2.62	1.08 ± 0.049	1.01 ± 0.16	1.11 ± 0.084	1.1 ± 0.18	1.11 ± 0.039	1.25 ± 0.09	1.09 ± 0.059	1.08 ± 0.077
SJSA1 BONE	3.83	4.73		3.43		5.36	1.01	5.19	3.02	1.15 ± 0.061	1.68 ± 0.074	1.6 ± 0.048	1.54 ± 0.045	1.71 ± 0.07	1.81 ± 0.054	1.65 ± 0.039	1.85 ± 0.11
SUM149.B1*.S BREAST		3.85	2.99	3.76	3.6	3.73	1.21	1.66	3.06	1.075 ± 0.01	1.09 ± 0.021	1.13 ± 0.075	1.12 ± 0.016	1.14 ± 0.055	1.16 ± 0.038	1.12 ± 0.067	1.2 ± 0.029
SG31 HEADNECK	1.58	3.73	2.94	3.36		4.19	1.44	1.96	2.85	1.27 ± 0.19	1.4 ± 0.5	1.11 ± 0.21	1.11 ± 0.25	1.15 ± 0.17	1.1 ± 0.063	1.63 ± 0.2	1.52 ± 0.15
CME SYNOVIAL	0.288	4.52		4.13		4.61	1.47	1.3	2.49	1.4 ± 0.11	1.45 ± 0.18	1.37 ± 0.076	1.34 ± 0.079	1.47 ± 0.23	1.41 ± 0.16	1.38 ± 0.13	1.34 ± 0.076
SIHA CERVIX	1.73	3.82	3.17		3.44	3.52	0.974	1.48	2.88	1.08 ± 0.065	1 ± 0.064	1.08 ± 0.033		1.06 ± 0.072	1.11 ± 0.026	1.07 ± 0.067	1.05 ± 0.064
MDAMB453 BREAST	2.11	3.54		3.52		3.64	1.23	1.04	2.73	1.07 ± 0.076	1.1 ± 0.079	1.09 ± 0.072	1.18 ± 0.1	1.14 ± 0.021	1.12 ± 0.03	1.04 ± 0.044	1.09 ± 0.04
BT549 BREAST	0.714	3.61	3.07		3.57	3.78	0.396	1.74	2.58	1.02 ± 0.08	1.06 ± 0.088	1.07 ± 0.16	1.24 ± 0.062	1.15 ± 0.068	1.28 ± 0.067	1.18 ± 0.03	1.15 ± 0.058
SNU475 LIVER	1.18	3.44	3.01	3.4		3.49	0.893	1.91	2.85	1.06 ± 0.039	1.08 ± 0.054	1.02 ± 0.03	1.05 ± 0.033	1.07 ± 0.026	1.02 ± 0.046	1.06 ± 0.03	1.11 ± 0.026
ZR751 BREAST	1.47	3.96	2.62	3.47		3.57	1.6	1.2	2.96	1.1 ± 0.19	1.1 ± 0.077	1.05 ± 0.07	1.07 ± 0.076	1.09 ± 0.084	1.15 ± 0.1	1.06 ± 0.026	1.04 ± 0.19
RDES SOFT TISSUE	0.518	3.72	2.76		3.69	3.85	1.03	1.4	2.44	1.11 ± 0.11	1.16 ± 0.14	1.19 ± 0.069	1.11 ± 0.077	1.16 ± 0.25	1.27 ± 0.11	1.17 ± 0.14	1.15 ± 0.045
S68 BREAST	1.05	3.8	2.83		2.99	3.75	0.758	1.4	2.38	1.18 ± 0.21	1.07 ± 0.24	1.26 ± 0.17	1.19 ± 0.15	1 ± 0.29	1.21 ± 0.15	0.95 ± 0.34	1.2 ± 0.11
HUO3N1 BONE	1.37	3.59	2.99	3.42	3.38		0.938	2.22	3.12	1.03 ± 0.04	0.998 ± 0.039	1.06 ± 0.057	1.08 ± 0.061	1.12 ± 0.017	1.02 ± 0.039	1 ± 0.023	0.974 ± 0.036
SG27 HEADNECK	2.66	3.6		3.52	3.65	3.88	3.02	1.43	3.14	1.18 ± 0.086	1.14 ± 0.069	1.14 ± 0.09	1.13 ± 0.046	1.3 ± 0.084	1.17 ± 0.23	1.12 ± 0.15	1.21 ± 0.081
